# Test system: A2B5+ OPCs
# Test: OPC differentiation assay
# Type: cell-based, Sprague Dawley rats
# Settings: 3-day incubation; for activity in the OPC assay at 2 micromolar / activity in the OPC assay at 20 micromolar: symbols not defined in the patent; for EC50: Rattus norvegicus, 72 h, MSD analysis
# Method: OPC Differentiation Assay
# Enriched populations of oligodendrocytes were grown from post-natal day 2 (P2) female Sprague Dawley rats. The forebrain was dissected out and placed in Hank's buffered saline solution (HBSS; Invitrogen, Grand Island, N.Y.). The tissue was cut into 1 mm fragments and incubated at 37° C. for 15 minutes in 0.01% trypsin and 10 μg/mL DNase. Dissociated cells were plated on poly-L-lysine-coated T75 tissue culture flasks and grown at 37° C. for 10 days in Dulbecco's modified Eagle's medium (DMEM) with 20% fetal calf serum (Invitrogen). A2B5^+ OPCs were collected by shaking the flask overnight at 200 rpm and 37° C., resulting in a 95% pure population.
# For the differentiation assay, 2 μM and 20 μM antagonist or the same concentrations of vehicle (DMSO) were applied to OPCs cultured in CNTF/T3 containing media. After a 3-day incubation, […], cell were lysed and then subjected to MSD (Meso Scale Discovery-R) analysis. EC50 was calculated by Prism using a nonlinear sigmoidal dose-response curvecells. Alternatively, cells were lysed in 80 μL lysis buffer (50 mM HEPES [4-(2-hydroxyethyl)-1-piperazineethanesulfonic acid], pH 7.5, 150 mM NaCl, 1.5 mM MgCl2, 1 mM ethylene glycol tetraacetic acid [EGTA], 1% Triton X-100 and 10% glycerol) for 30 minutes at 4° C. After centrifugation at 14,000 g for 15 minutes, the supernatants were boiled in Laemmli sample buffer, subjected to 4-20% SDS-PAGE, and analyzed by Western blotting with anti-MBP, anti-myelin-associated glycoprotein (MAG), or anti-beta actin antibodies. The secondary antibodies used were anti-mouse IgG-HRP (horseradish peroxidase) and anti-rabbit IgG-HRP respectively.
EC50 [µM],SMILES,activity in the OPC assay at 2 micromolar,activity in the OPC assay at 20 micromolar
< 10,"CC1(C(=O)O)CCN(Cc2ccc3cc(O[C@H]4CC[C@H](C(C)(C)C)CC4)ccc3c2)CC1 [Example 77, 1-((6-(trans-4-tert-Butylcyclohexyloxy)naphthalen-2-yl)methyl)-4-methylpiperidine-4-carboxylic acid]",+ to ++++,+ to ++++
–,"O=C(O)C1CCN(Cc2ccc3cc(OC4CCC5(CCCCC5)CC4)ccc3c2)CC1 [Example 85, 1-((6-(spiro[5.5]undecan-3-yloxy)naphthalen-2-yl)methyl)piperidine-4-carboxylic acid]",+ to ++++,+ to ++++
–,"CC(C)(C)[C@H]1CC[C@H](Oc2ccc3cc(CN4CCC(C(=O)O)(c5ccccc5)CC4)ccc3c2)CC1 [Example 59, 1-[6-(4-tert-Butyl-cyclohexyloxy)-naphthalen-2-ylmethyl]-4-phenyl-piperidine-4-carboxylic acid]",+ to ++++,–
< 10,"CCCCC1CCC(Oc2ccc3cc(CN4CCC(C(=O)O)CC4)ccc3c2)CC1 (mixture of isomers) [Example 32, 1-((6-(4-Butylcyclohexyloxy)naphthalen-2-yl)methyl)piperidine-4-carboxylic acid]",+ to ++++,+ to ++++
–,"CC(C)(C)[C@H]1CC[C@H](Oc2ccc3nc(CN4CCC(C(=O)O)CC4)ncc3c2)CC1 [Example 15, 1-((6-(trans-4-tert-Butylcyclohexyloxy)quinazolin-2-yl)methyl)piperidine-4-carboxylic acid]",+ to ++++,–
–,"CC(C)(C)[C@H]1CC[C@H](Oc2ccc3cc(CN4CCCCC4C(=O)O)ccc3c2)CC1 (some centres unmarked) [Example 88, 1-[6-(4-tert-Butyl-cyclohexyloxy)-naphthalen-2-ylmethyl]-piperidine-2-carboxylic acid]",+ to ++++,–
–,"CC(C)(C)[C@H]1CC[C@H](Oc2ccc3cc(CN4CCC(C(=O)O)CC4)ncc3c2)CC1 [Example 75, 1-[7-(trans-4-tert-Butyl-cyclohexyloxy)-isoquinolin-3-ylmethyl]-piperidine-4-carboxylic acid]",+ to ++++,+ to ++++
–,"O=C(O)C1CCN(Cc2ccc3cc(OC4CCC5(CCC5)CC4)ccc3c2)CC1 [Example 87, 1-((6-(spiro[3.5]nonan-7-yloxy)naphthalen-2-yl)methyl)piperidine-4-carboxylic acid]",–,+ to ++++
< 10,"CCC1CCC(Oc2ccc3cc(CN4CCC(C(=O)O)CC4)ccc3c2)CC1 (centres unmarked) [Example 30, 1-((6-(4-Ethylcyclohexyloxy)naphthalen-2-yl)methyl)piperidine-4-carboxylic acid]",+ to ++++,+ to ++++
–,"CC[C@H]1CC[C@@H](Oc2ccc3cc(CN4CCC(C(=O)O)CC4)ccc3c2)CC1 [Example 36, 1-((6-(cis-4-Ethylcyclohexyloxy)naphthalen-2-yl)methyl)piperidine-4-carboxylic acid]",+ to ++++,+ to ++++
–,"CC(C)(C)[C@H]1CC[C@H](Oc2ccc3cc(C(=O)N4CCC(C(=O)O)CC4)ccc3c2)CC1 [Example 48, 1-(6-(trans-4-tert-Butylcyclohexyloxy)-2-naphthoyl)piperidine-4-carboxylic acid]",+ to ++++,+ to ++++
< 10,"CC1CN(Cc2ccc3cc(O[C@H]4CC[C@H](C(C)(C)C)CC4)ccc3c2)CCC1C(=O)O (some centres unmarked) [Example 58, 1-[6-(4-tert-Butyl-cyclohexyloxy)-naphthalen-2-ylmethyl]-3-methyl-piperidine-4-carboxylic acid]",+ to ++++,+ to ++++
–,"O=C(O)C1CCN(Cc2ccc3cc(OC4CCC5(CCCC5)CC4)ccc3c2)CC1 [Example 34, 1-((6-(Spiro[4.5]decan-8-yloxy)naphthalen-2-yl)methyl)piperidine-4-carboxylic acid]",–,+ to ++++
–,"CC(C)(C)[C@H]1CC[C@H](Oc2ccc3cc(CN4CCC(CC(=O)O)CC4)ccc3c2)CC1 [Example 62, {1-[6-(4-tert-Butyl-cyclohexyloxy)-naphthalen-2-ylmethyl]-piperidin-4-yl}-acetic acid]",+ to ++++,+ to ++++
–,"CC(C)(C)[C@H]1CC[C@H](Oc2ccc3cc(CN4CCC(C(=O)O)CC4)ccc3n2)CC1 [Example 55, 1-((2-(trans-4-tert-Butylcyclohexyloxy)quinolin-6-yl)methyl)piperidine-4-carboxylic acid]",+ to ++++,–
< 10,"CC(C)(C)[C@H]1CC[C@H](Oc2ccc3cc(CN4CCC(O)(C(=O)O)CC4)ccc3c2)CC1 [Example 61, 1-[6-(4-tert-Butyl-cyclohexyloxy)-naphthalen-2-ylmethyl]-4-hydroxy-piperidine-4-carboxylic acid]",+ to ++++,+ to ++++
< 10,"CC(C)(C)[C@H]1CC[C@H](Oc2ccc3cc(C(N4CCC(C(=O)O)CC4)C(F)(F)F)ccc3c2)CC1 (stereo partly drawn) [Example 22, 1-(1-(6-(trans-4-tert-Butylcyclohexyloxy)naphthalen-2-yl)-2,2,2-trifluoroethyl)piperidine-4-carboxylic acid]",+ to ++++,+ to ++++
–,"O=C(O)C1CCN(Cc2ccc3cc(OC4CCCCCC4)ccc3c2)CC1 [Example 81, 1-((6-(cycloheptyloxy)naphthalen-2-yl)methyl)piperidine-4-carboxylic acid]",–,+ to ++++
< 10,"CC(C)(C)[C@H]1CC[C@@H](Oc2ccc3cc(CN4CCC(C(=O)O)CC4)ccc3c2)CC1 [Example 26, 1-((6-(cis-4-tert-Butylcyclohexyloxy)naphthalen-2-yl)methyl)piperidine-4-carboxylic acid]",–,+ to ++++
–,"CC[C@H]1CC[C@H](Oc2ccc3cc(CN4CCC(C(=O)O)CC4)ccc3c2)CC1 [Example 38, 1-((6-(trans-4-Ethylcyclohexyloxy)naphthalen-2-yl)methyl)piperidine-4-carboxylic acid]",–,+ to ++++
< 10,"CC(C)C1CCC(Oc2ccc3cc(CN4CCC(C(=O)O)CC4)ccc3c2)CC1 (centres unmarked) [Example 24, 1-((6-(4-Isopropylcyclohexyloxy)naphthalen-2-yl)methyl)piperidine-4-carboxylic acid]",–,–
–,"O=C(O)C1CCN(Cc2ccc3cc(OC4CCOCC4)ccc3c2)CC1 [Example 83, 1-((6-(tetrahydro-2H-pyran-4-yloxy)naphthalen-2-yl)methyl)piperidine-4-carboxylic acid]",+ to ++++,+ to ++++
–,"CC(C)(C)C1CCC(=Cc2ccc3cc(CN4CCC(C(=O)O)CC4)ccc3c2)CC1 (centres unmarked) [Example 52, 1-((6-((4-tert-Butylcyclohexylidene)methyl)naphthalen-2-yl)methyl)piperidine-4-carboxylic acid]",–,+ to ++++
–,"CCC1(C(=O)O)CCN(Cc2ccc3cc(O[C@H]4CC[C@H](C(C)(C)C)CC4)ccc3c2)CC1 [Example 56, 1-[6-(4-tert-Butyl-cyclohexyloxy)-naphthalen-2-ylmethyl]-4-ethyl-piperidine-4-carboxylic acid]",+ to ++++,–
< 10,"CC(C)(C)[C@H]1CC[C@H](Oc2ccc3cc(CN4CCCC(C(=O)O)CC4)ccc3c2)CC1 (some centres unmarked) [Example 60, 1-[6-(4-tert-Butyl-cyclohexyloxy)-naphthalen-2-ylmethyl]-perhydro-azepine-4-carboxylic acid]",+ to ++++,–
–,"CCCC1(C(=O)O)CCN(Cc2ccc3cc(O[C@H]4CC[C@H](C(C)(C)C)CC4)ccc3c2)CC1 [Example 57, 1-[6-(4-tert-Butyl-cyclohexyloxy)-naphthalen-2-ylmethyl]-4-propyl-piperidine-4-carboxylic acid]",+ to ++++,+ to ++++
< 10,"CC(C)(C)[C@H]1CC[C@H](Oc2ccc3nc(CN4CCC(C(=O)O)CC4)ccc3c2)CC1 [Example 42, 1-((6-(trans-4-tert-Butylcyclohexyloxy)quinolin-2-yl)methyl)piperidine-4-carboxylic acid]",+ to ++++,+ to ++++

# — patent US10894040B2, “S1P modulating agents” (BIOGEN MA INC., priority 2011, dated 2021)
